{"source": "paper PMC8639922", "about": "“KSHV transactivator-derived small peptide traps coactivators to attenuate MYC and inhibits leukemia and lymphoma cell growth” (Communications Biology, 2021)", "test_system": "MYC promoter and putative enhancer regions", "assay": "CUT&RUN qPCR, coactivator complex recruitment (PolII, BRD4, SMARCA4)", "type": "cell-based, human", "source_text": "We next examined the molecular mechanism of MYC down-regulation by VGN50. We first utilized Cleavage under targets & release using nuclease (CUT&RUN)-sequencing to examine histone modifications that are known to be associated with enhancers in order to map putative MYC enhancer regions in PEL cells (Fig. 5a). Genome-wide CUT&RUN studies identified putative enhancer and promoter regulatory regions that are marked by H3K27Ac, H3K4me1, POLR2A (RNAPII), BRD4, and SMARCC1, a component of the SWI/SNF complex (Fig. 1b and 5a). The identified putative MYC enhancers were also in good agreement with previous ChIP Hi-C[53] and ChIP-seq data sets[54]. Specific primer pairs were then designed to amplify the respective enhancer regions and to examine regulation of coactivator complex recruitment by VGN50.\nFig. 5 A molecular mechanism of VGN50-mediated MYC-down-regulation. a Cleavage under targets & release using nuclease (CUT&RUN). CUT&RUN was performed with BCBL-1 and BC-1 with the indicated antibodies. Enrichment of active histone modifications, and occupancies of RNAPII and SWI/SNF components at the MYC genomic region are shown as peaks. One of the biological duplicate samples for the BCBL-1 cell line is presented. […] The MYC promoter, enhancer, and negative control regions used for qPCR analyses are indicated with shading. The positions of the MYC coding region, CASC11 coding region, and long non-coding RNA, PVT1, MIR1208 are shown in the panel. b VGN50 inhibits coactivator complex recruitment and c reduces H3K27Ac modification. qPCR is used to examine enrichment of DNA fragments in the presence of VGN50 or mutant peptide (24 μM). Peptide was applied 1 h prior to processing samples for CUT&RUN to replicate SLAM-seq experimental conditions. Non-specific IgG control was also included and enrichment with IgG control at each genomic region was set as 1 for b, and spiked-in luciferase plasmid DNA was used for additional internal control for c. d Formation of a larger protein complex with VGN50. Sucrose gradient sedimentation was used to monitor changes in protein complex formation in the presence of VGN50. The experiment flow chart is shown at the top of this panel. Fractions were collected from top (#1) to bottom (#23/24). Sample #24 without peptide is a smaller fraction of residual samples. Immunoblotting was performed on the odd number samples and the remaining fraction (#24 for no peptide sample) and probed with Flag-tagged SWI/SNF components (SMARCA4, SMARCC2, and SMARCB1). The position of each protein component based on molecular size is indicated. e KSHV K-Rta colocalizes with SWI/SNF components in reactivating BCBL-1 cells. TREx-BCBL-1 cells were triggered for reactivation by treatment with Dox and TPA for 28 h and stained with the indicated antibodies. Images were acquired with Keyence fluorescence microscopy. f A model for VGN50 molecular action. A model depicting the putative molecular action of VGN50 is presented. Coactivator complexes are dynamically assembled on enhancer and promoter regions via transcription factor binding. VGN50, an IDR fragment derived from an exceptionally potent viral transactivator, flexibly interacts with components of coactivators and traps them, thus reduces the available resources for cellular enhancers to activate MYC promoters.\nCUT&RUN[72] was performed essentially by following the online protocol developed by Dr. Henikoff’s lab with a few modifications to fit our needs. Cells were washed with PBS and wash buffer [20 mM HEPES-KOH pH 7.5, 150 mM NaCl, 0.5 mM Spermidine (Sigma, S2626), and proteinase inhibitor (Roche)]. After removing the wash buffer, cells were captured on magnetic concanavalin A (ConA) beads (Polysciences, PA, USA) in the presence of CaCl2. […]", "key": {"[1]": {"settings": "MYC region E1, peptide 24 μM 1 h, IgG set as 1, replicate 1"}, "[2]": {"settings": "MYC region E1, peptide 24 μM 1 h, IgG set as 1, replicate 2"}, "[3]": {"settings": "MYC region E1, peptide 24 μM 1 h, IgG set as 1, replicate 3"}, "[4]": {"settings": "MYC region E2, peptide 24 μM 1 h, IgG set as 1, replicate 1"}, "[5]": {"settings": "MYC region E2, peptide 24 μM 1 h, IgG set as 1, replicate 2"}, "[6]": {"settings": "MYC region E2, peptide 24 μM 1 h, IgG set as 1, replicate 3"}, "[7]": {"settings": "MYC region E3, peptide 24 μM 1 h, IgG set as 1, replicate 1"}, "[8]": {"settings": "MYC region E3, peptide 24 μM 1 h, IgG set as 1, replicate 2"}, "[9]": {"settings": "MYC region E3, peptide 24 μM 1 h, IgG set as 1, replicate 3"}, "[10]": {"settings": "MYC region P1, peptide 24 μM 1 h, IgG set as 1, replicate 1"}, "[11]": {"settings": "MYC region P1, peptide 24 μM 1 h, IgG set as 1, replicate 2"}, "[12]": {"settings": "MYC region P1, peptide 24 μM 1 h, IgG set as 1, replicate 3"}, "[13]": {"settings": "Myc Control region, peptide 24 μM 1 h, IgG set as 1, replicate 1"}, "[14]": {"settings": "Myc Control region, peptide 24 μM 1 h, IgG set as 1, replicate 2"}, "[15]": {"settings": "Myc Control region, peptide 24 μM 1 h, IgG set as 1, replicate 3"}}, "note": "Square brackets hold non-standard residues; d marks the D form. Peptide text beside a SMILES is read from it. Orn = NCCC[C@H](N)C(=O)O; βAla = NCCC(=O)O", "data": [{"smiles": "CC(C)C[C@H](NC(=O)CCNC(=O)[C@H](CCCNC(=N)N)NC(=O)[C@H](CCCNC(=N)N)NC(=O)[C@H](CCCNC(=N)N)NC(=O)[C@H](CCCN)NC(=O)[C@H](CCCNC(=N)N)NC(=O)[C@H](CCCNC(=N)N)NC(=O)[C@H](CCCCN)NC(=O)[C@H](CCCCN)NC(=O)[C@H](N)CCCNC(=N)N)C(=O)N[C@@H](CO)C(=O)N[C@@H](CO)C(=O)N[C@@H](C)C(=O)N[C@@H](C)C(=O)N[C@@H](C)C(=O)NCC(=O)N[C@@H](CC(C)C)C(=O)N[C@@H](Cc1ccc(O)cc1)C(=O)N[C@@H](CCC(N)=O)C(=O)N[C@@H](CC(C)C)C(=O)N[C@@H](CC(=O)O)C(=O)N[C@H](C(=O)O)[C@@H](C)O", "note": "[Mt-P] (H-[dR]KKRR[Orn]RRR[βAla]LSSAAAGLYQLDT-OH; N-terminus and C-terminus assumed)", "values": [{"measurement": "BRD4 enrichment, CUT&RUN qPCR", "setting": "[1]", "result": 3.57}, {"measurement": "PolII enrichment, CUT&RUN qPCR", "setting": "[1]", "result": 2.89}, {"measurement": "SMARCA4 enrichment, CUT&RUN qPCR", "setting": "[1]", "result": 1.44}, {"measurement": "BRD4 enrichment, CUT&RUN qPCR", "setting": "[2]", "result": 3.47}, {"measurement": "PolII enrichment, CUT&RUN qPCR", "setting": "[2]", "result": 2.18}, {"measurement": "SMARCA4 enrichment, CUT&RUN qPCR", "setting": "[2]", "result": 1.11}, {"measurement": "BRD4 enrichment, CUT&RUN qPCR", "setting": "[3]", "result": 3.30}, {"measurement": "PolII enrichment, CUT&RUN qPCR", "setting": "[3]", "result": 2.41}, {"measurement": "SMARCA4 enrichment, CUT&RUN qPCR", "setting": "[3]", "result": 1.32}, {"measurement": "BRD4 enrichment, CUT&RUN qPCR", "setting": "[4]", "result": 6.92}, {"measurement": "PolII enrichment, CUT&RUN qPCR", "setting": "[4]", "result": 9.68}, {"measurement": "SMARCA4 enrichment, CUT&RUN qPCR", "setting": "[4]", "result": 2.57}, {"measurement": "BRD4 enrichment, CUT&RUN qPCR", "setting": "[5]", "result": 6.75}, {"measurement": "PolII enrichment, CUT&RUN qPCR", "setting": "[5]", "result": 10.09}, {"measurement": "SMARCA4 enrichment, CUT&RUN qPCR", "setting": "[5]", "result": 2.47}, {"measurement": "BRD4 enrichment, CUT&RUN qPCR", "setting": "[6]", "result": 7.28}, {"measurement": "PolII enrichment, CUT&RUN qPCR", "setting": "[6]", "result": 9.27}, {"measurement": "SMARCA4 enrichment, CUT&RUN qPCR", "setting": "[6]", "result": 2.05}, {"measurement": "BRD4 enrichment, CUT&RUN qPCR", "setting": "[7]", "result": 7.28}, {"measurement": "PolII enrichment, CUT&RUN qPCR", "setting": "[7]", "result": 10.61}, {"measurement": "SMARCA4 enrichment, CUT&RUN qPCR", "setting": "[7]", "result": 2.01}, {"measurement": "BRD4 enrichment, CUT&RUN qPCR", "setting": "[8]", "result": 6.68}, {"measurement": "PolII enrichment, CUT&RUN qPCR", "setting": "[8]", "result": 9.91}, {"measurement": "SMARCA4 enrichment, CUT&RUN qPCR", "setting": "[8]", "result": 2.39}, {"measurement": "BRD4 enrichment, CUT&RUN qPCR", "setting": "[9]", "result": 7.58}, {"measurement": "PolII enrichment, CUT&RUN qPCR", "setting": "[9]", "result": 10.57}, {"measurement": "SMARCA4 enrichment, CUT&RUN qPCR", "setting": "[9]", "result": 1.42}, {"measurement": "BRD4 enrichment, CUT&RUN qPCR", "setting": "[10]", "result": 8.00}, {"measurement": "PolII enrichment, CUT&RUN qPCR", "setting": "[10]", "result": 18.06}, {"measurement": "SMARCA4 enrichment, CUT&RUN qPCR", "setting": "[10]", "result": 2.48}, {"measurement": "BRD4 enrichment, CUT&RUN qPCR", "setting": "[11]", "result": 8.20}, {"measurement": "PolII enrichment, CUT&RUN qPCR", "setting": "[11]", "result": 18.31}, {"measurement": "SMARCA4 enrichment, CUT&RUN qPCR", "setting": "[11]", "result": 2.51}, {"measurement": "BRD4 enrichment, CUT&RUN qPCR", "setting": "[12]", "result": 7.99}, {"measurement": "PolII enrichment, CUT&RUN qPCR", "setting": "[12]", "result": 17.86}, {"measurement": "SMARCA4 enrichment, CUT&RUN qPCR", "setting": "[12]", "result": 2.36}, {"measurement": "BRD4 enrichment, CUT&RUN qPCR", "setting": "[13]", "result": 2.07}, {"measurement": "PolII enrichment, CUT&RUN qPCR", "setting": "[13]", "result": 2.07}, {"measurement": "SMARCA4 enrichment, CUT&RUN qPCR", "setting": "[13]", "result": 1.30}, {"measurement": "BRD4 enrichment, CUT&RUN qPCR", "setting": "[14]", "result": 1.88}, {"measurement": "PolII enrichment, CUT&RUN qPCR", "setting": "[14]", "result": 1.88}, {"measurement": "SMARCA4 enrichment, CUT&RUN qPCR", "setting": "[14]", "result": 1.17}, {"measurement": "BRD4 enrichment, CUT&RUN qPCR", "setting": "[15]", "result": 1.71}, {"measurement": "PolII enrichment, CUT&RUN qPCR", "setting": "[15]", "result": 1.71}, {"measurement": "SMARCA4 enrichment, CUT&RUN qPCR", "setting": "[15]", "result": 1.15}]}]}
